Literature values as cited in PubChem BioAssay AID1259409 (Chemical Carcinogenesis Research Information System (CCRIS), 2018).

System: rodent chemically induced tumor inhibition, incidence and multiplicity
Assay: CCRIS tumor inhibitor studies
Conditions: Promoter: NONE USED

CCCc1cc(OC)c2c(c1)OCO2
tumour outcome (control, treated, inhibition, significance) (Carcinogen: BENZO[A]PYRENE, 50-32-8, Dose [Inhibitor]: 0, 10 MG SUSPENDED IN 0.3 ML COTTONSEED OIL 3/WK FOR 4 WK ON DAYS OTHER THAN THE CARCINOGEN TREATMENT, 3 ADDITIONAL DOSE, Route [Inhibitor]: GAVAGE, Species: MOUSE, Strain/Sex: STRAIN-A/FEMALE, Target Tissue: Type of Lesion: FORESTOMACH: TUMOR, Dose [Carcinogen]: 1 MG IN 0.3 ML COTTONSEED OIL 2/WK FOR 4 WK): 12/17 (71%), 12/19 (63%), 11%, not significant
tumour outcome (control, treated, inhibition, significance) (Carcinogen: BENZO[A]PYRENE, 50-32-8, Dose [Inhibitor]: 0, 10 MG SUSPENDED IN 0.3 ML COTTONSEED OIL 3/WK FOR 4 WK ON DAYS OTHER THAN THE CARCINOGEN TREATMENT, 3 ADDITIONAL DOSE, Route [Inhibitor]: GAVAGE, Species: MOUSE, Strain/Sex: STRAIN-A/FEMALE, Target Tissue: Type of Lesion: LUNG: TUMOR, Dose [Carcinogen]: 1 MG IN 0.3 ML COTTONSEED OIL 2/WK FOR 4 WK): 17/17 (100%), 19/19 (100%), 0%, not significant

O=S(=O)([O-])[O-].O=S(=O)([O-])[O-].O=S(=O)([O-])[O-].[Fe+3].[Fe+3]
tumour outcome (control, treated, inhibition, significance) (Dose [Inhibitor]: 0, 15.5 UMOL (FE) INJECTED WITH CARCINOGEN INTO THIGH OF BOTH HIND LIMBS (STUDY DURATION: 79 WK), Route [Inhibitor]: INTRAMUSCULAR, Species: RAT, Strain/Sex: F344/MALE, Target Tissue: Type of Lesion: INJECTION SITE: SARCOMA, Dose [Carcinogen]: 2.5 MG PER SITE INJECTED INTO THIGH OF BOTH HIND LIMBS ONCE): 100%, 98%, 2%, not significant
tumour outcome (control, treated, inhibition, significance) (Dose [Inhibitor]: 0, 30 UMOL (FE) INJECTED WITH CARCINOGEN INTO THIGH OF BOTH HIND LIMBS (STUDY DURATION: 79 WK), Route [Inhibitor]: INTRAMUSCULAR, Species: RAT, Strain/Sex: F344/MALE, Target Tissue: Type of Lesion: INJECTION SITE: SARCOMA, Dose [Carcinogen]: 2.5 MG PER SITE INJECTED INTO THIGH OF BOTH HIND LIMBS ONCE): 100%, 45%, 55%, not calculated
tumour outcome (control, treated, inhibition, significance) (Dose [Inhibitor]: 0, 60 UMOL (FE) INJECTED INTO NAPE OF NECK (STUDY DURATION: 79 WK), Route [Inhibitor]: SUBCUTANEOUS, Species: RAT, Strain/Sex: F344/MALE, Target Tissue: Type of Lesion: INJECTION SITE: SARCOMA, Dose [Carcinogen]: 2.5 MG PER SITE INJECTED INTO THIGH OF BOTH HIND LIMBS): 100%, 100%, 0%, not significant
tumour outcome (control, treated, inhibition, significance) (Dose [Inhibitor]: 0, 60 UMOL (FE) INJECTED WITH CARCINOGEN INTO THIGH OF BOTH HIND LIMBS (STUDY DURATION: 79 WK), Route [Inhibitor]: INTRAMUSCULAR, Species: RAT, Strain/Sex: F344/MALE, Target Tissue: Type of Lesion: INJECTION SITE: SARCOMA, Dose [Carcinogen]: 2.5 MG PER SITE INJECTED INTO THIGH OF BOTH HIND LIMBS ONCE): 100%, 35%, 65%, not calculated

C[C@]12CCC(=O)C=C1CC[C@@H]1[C@@H]2[C@@H](O)C[C@@]2(C)[C@H]1CC[C@]2(O)C(=O)CO
tumour outcome (control, treated, inhibition, significance) (Carcinogen: METHYLAZOXYMETHANOL ACETATE, 592-62-1, Dose [Inhibitor]: 7.5 MG/KG BW DAILY FOR 3 WK STARTING 21 WK POST CARCINOGEN TREATMENT (STUDY DURATION: 30 WK), Route [Inhibitor]: INTRARECTAL, Species: RAT, Strain/Sex: DONRYU/MALE, Target Tissue: Type of Lesion: LARGE INTESTINE: ADENOCARCINOMA, Dose [Carcinogen]: 20 MG/KG BW 1/WK FOR 6 WK): 19/23 (83%), 16/29 (55%), 34%, p<0.05
tumour outcome (control, treated, inhibition, significance) (Carcinogen: METHYLAZOXYMETHANOL ACETATE, 592-62-1, Dose [Inhibitor]: 7.5 MG/KG BW DAILY FOR 3 WK STARTING 21 WK POST CARCINOGEN TREATMENT (STUDY DURATION: 30 WK), Route [Inhibitor]: INTRARECTAL, Species: RAT, Strain/Sex: DONRYU/MALE, Target Tissue: Type of Lesion: SMALL INTESTINE: ADENOCARCINOMA, Dose [Carcinogen]: 20 MG/KG BW 1/WK FOR 6 WK): 10/23 (43%), 4/29 (14%), 67%, p<0.05
tumour outcome (control, treated, inhibition, significance) (Dose [Inhibitor]: 0, 1.5 MG 2/WK FOR 10 WK (STUDY DURATION: 65 WK), Route [Inhibitor]: INTRAMUSCULAR, Species: RAT, Strain/Sex: F344/MALE, Target Tissue: Type of Lesion: LIVER: HEPATOCELLULAR CARCINOMA, Dose [Carcinogen]: 100 UG 2/WK FOR 10 WK): 12/13 (92%), 15/24 (63%), 32%, p<0.05

O=C(O)[C@@H]1CCCN1 (tested in a mixture with another compound)
tumour outcome (control, treated, inhibition, significance) (Carcinogen: N-NITROSODIETHYLAMINE, 55-18-5, Dose [Inhibitor]: 0, 50 MG/KG 2/WK 1 HR PRIOR TO AND 24 HR POST CARCINOGEN TREATMENT FOR 10 WK (STUDY DURATION: 28 WK), Route [Inhibitor]: INTRAPERITONEAL, Species: RAT, Strain/Sex: BD-6/MALE, Target Tissue: Type of Lesion: LIVER: TUMOR, Dose [Carcinogen]: 80 MG/KG 1/WK FOR 10 WK): 22/23 (96%), 5/23 (22%), 77%, p<0.001
tumour outcome (control, treated, inhibition, significance) (Carcinogen: N-NITROSODIETHYLAMINE, 55-18-5, Dose [Inhibitor]: 0, 100 MG/KG 2/WK 1 HR PRIOR TO AND 24 HR POST CARCINOGEN TREATMENT FOR 10 WK (STUDY DURATION: 28 WK), Route [Inhibitor]: INTRAPERITONEAL, Species: RAT, Strain/Sex: BD-6/MALE, Target Tissue: Type of Lesion: LIVER: TUMOR, Dose [Carcinogen]: 80 MG/KG 1/WK FOR 10 WK): 22/23 (96%), 9/21 (43%), 55%, p<0.001
tumour outcome (control, treated, inhibition, significance) (Carcinogen: N-NITROSODIETHYLAMINE, 55-18-5, Dose [Inhibitor]: 0, 100 MG/KG 2/WK 1 HR PRIOR TO AND 24 HR POST CARCINOGEN TREATMENT FOR 10 WK (STUDY DURATION: 40 WK), Route [Inhibitor]: INTRAPERITONEAL, Species: RAT, Strain/Sex: BD-6/MALE, Target Tissue: Type of Lesion: LIVER: TUMOR, Dose [Carcinogen]: 80 MG/KG 1/WK FOR 10 WK): 22/23 (96%), 8/20 (40%), 58%, not calculated
